Experimental data published in patent US10953012B2, “Heterocyclic compounds for the inhibition of pask” (BioEnergenix LLC, priority 2011, dated 2021).

Legend:
PASK [1] = molecular target: PASK (UniProt #Q96RG2; residues 879-1323) (Homo sapiens (Human), UniProt Q96RG2); experiment: PASK ATP Radiochemical Assay; format: biochemical; settings: 33P-ATP radiochemical assay; read-out: IC50 Kinase Domain
Procedure: PASK ATP Radiochemical Assay Purified PASK (UniProt #Q96RG2; human recombinant N-terminal GST tagged construct, residues 879-1323) from insect cells (final concentration 5 nM) is added to freshly prepared Base Reaction Buffer containing 20 mM HEPES (pH 7.5), 10 mM MgCl2, 1 mM EGTA, 0.02% Brij35, 0.02 mg/ml BSA, 0.1 mM Na3VO4, 2 mM DTT, 1% DMSO and Myelin Basic Protein (20 μM final). Test compounds in DMSO are then added and the mixture, followed by delivery of ^33P-ATP (specific activity 0.01 μCi/μl final) to initiate the reaction. The kinase reaction is incubated for 120 min at room temperature. The entire reaction mixture is washed through onto a P81 Phosphocellulose paper and washed three times for 10 minutes in 75 mM phosphoric acid and once in methanol prior to drying and scintillation counting.

PASK [2] = molecular target: PASK (Homo sapiens (Human), UniProt Q96RG2); experiment: PAS Kinase FRET Assay; format: biochemical; settings: TR-FRET assay; read-out: IC50 Kinase Domain
PASK (Homo sapiens (Human), UniProt Q96RG2), sequence (Q96RG2 999-1251): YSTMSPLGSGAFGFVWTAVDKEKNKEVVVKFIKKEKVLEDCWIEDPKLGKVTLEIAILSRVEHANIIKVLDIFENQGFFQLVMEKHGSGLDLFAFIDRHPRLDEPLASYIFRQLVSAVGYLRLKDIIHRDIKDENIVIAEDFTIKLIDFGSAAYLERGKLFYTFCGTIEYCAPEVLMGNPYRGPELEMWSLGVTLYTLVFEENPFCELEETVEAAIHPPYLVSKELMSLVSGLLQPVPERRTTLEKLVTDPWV
Method in brief: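 Reaction buffer: 50 mM HEPES, 10 mM MgCl2, 1 mM EGTA, 2 mM DTT, 0.01% Tween-20. Test compounds (eleven-point series prepared at 4× final) preceded PASK and substrate/ATP. Reaction ran 2 h at 25 °C in the dark, then stopped. Phospho-ULight peptide detected by Eu-antibody TR-FRET, 665/615 nm ratio.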

CK2a2 = CK2a2 (Homo sapiens (Human), UniProt P19784); experiment: Biochemical Assay for CK2 Activity; settings: 33P-ATP radiochemical assay; read-out: IC50 CK2 a2
CK2a2, sequence (P19784 whole entry): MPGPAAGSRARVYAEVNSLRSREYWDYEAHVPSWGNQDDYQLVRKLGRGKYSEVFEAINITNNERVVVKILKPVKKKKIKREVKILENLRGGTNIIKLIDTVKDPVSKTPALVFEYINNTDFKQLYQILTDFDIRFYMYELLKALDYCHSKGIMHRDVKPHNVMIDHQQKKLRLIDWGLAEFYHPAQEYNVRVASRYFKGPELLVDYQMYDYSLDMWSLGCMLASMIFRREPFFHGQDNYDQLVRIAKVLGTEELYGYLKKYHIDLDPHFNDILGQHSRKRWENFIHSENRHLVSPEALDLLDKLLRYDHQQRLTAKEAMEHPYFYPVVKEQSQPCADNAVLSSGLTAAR
Method in brief: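 GST-tagged full-length human CK2a2 from insect cells (1.2 nM) with 20 μM RRRDDDSDDD peptide, in pH 7.5 HEPES buffer with MgCl2, DTT and 1% DMSO. Reactions started with ³³P-ATP were run for 120 min at room temperature. Substrate phosphorylation was measured by P81 phosphocellulose filter binding and scintillation counting.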

PASK (UniProt #Q96RG2; residues 879-1323) (Homo sapiens (Human), UniProt Q96RG2), sequence (Q96RG2 879-1323): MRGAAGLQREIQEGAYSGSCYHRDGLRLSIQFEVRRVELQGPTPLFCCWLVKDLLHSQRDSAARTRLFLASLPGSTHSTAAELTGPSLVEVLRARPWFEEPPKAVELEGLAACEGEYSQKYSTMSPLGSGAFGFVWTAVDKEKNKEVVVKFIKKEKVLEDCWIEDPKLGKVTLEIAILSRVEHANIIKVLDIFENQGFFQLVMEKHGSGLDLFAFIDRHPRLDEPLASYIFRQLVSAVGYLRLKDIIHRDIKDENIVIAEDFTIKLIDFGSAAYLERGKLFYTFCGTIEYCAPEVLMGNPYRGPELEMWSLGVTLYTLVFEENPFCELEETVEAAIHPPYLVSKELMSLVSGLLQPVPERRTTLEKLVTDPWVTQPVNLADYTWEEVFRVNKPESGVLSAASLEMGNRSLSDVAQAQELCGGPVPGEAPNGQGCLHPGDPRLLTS

| IC50 (PASK [1]) [µM] | IC50 (PASK [2]) [µM] | IC50 (CK2a2) [µM] | SMILES |
| --- | --- | --- | --- |
| ≤ 10 | ≤ 10 | ≤ 10 | CCc1nn2c(=O)cc(-c3ccc4c(c3)OCO4)[nH]c2c1-c1ccccn1 [Example 161, 5-(Benzo[d][1,3]dioxol-5-yl)-2-ethyl-3-(pyridin-2-yl)pyrazolo[1,5-a]pyrimidin-7(4H)-one] |
| ≤ 10 | ≤ 10 | ≤ 10 | Nc1nn2c(=O)cc(-c3ccc(Cl)cc3F)[nH]c2c1-c1ccccn1 [Example 163, 2-Amino-5-(4-chloro-2-fluorophenyl)-3-(pyridin-2-yl)pyrazolo[1,5-a]pyrimidin-7(4H)-one] |
| ≤ 10 | ≤ 10 | ≤ 10 | Nc1nn2c(=O)cc(-c3ccc(F)cc3)[nH]c2c1-c1ccccn1 [Example 171, 2-Amino-5-(4-fluorophenyl)-3-(pyridin-2-yl)pyrazolo[1,5-a]pyrimidin-7(4H)-one] |
| ≤ 10 | ≤ 10 | ≤ 10 | Nc1nn2c(=O)cc(-c3ccc4[nH]nnc4c3)[nH]c2c1-c1ccccn1 [Example 191, 2-Amino-5-(1H-benzo[d][1,2,3]triazol-5-yl)-3-(pyridin-2-yl)pyrazolo[1,5-a]pyrimidin-7(4H)-one] |
| ≤ 10 | ≤ 10 | ≤ 10 | O=c1cc(-c2ccc3[nH]nnc3c2)[nH]c2c(-c3ccccn3)c(O)nn12 [Example 193, 5-(1H-Benzo[d][1,2,3]triazol-5-yl)-2-hydroxy-3-(pyridin-2-yl)pyrazolo[1,5-a]pyrimidin-7(4H)-one] |
| ≤ 10 | ≤ 10 | ≤ 10 | CCc1nn2c(=O)cc(-c3ccc4[nH]nnc4c3)[nH]c2c1-c1ccccn1 [Example 201, 5-(1H-benzo[d][1,2,3]triazol-5-yl)-2-ethyl-3-(pyridin-2-yl)pyrazolo[1,5-a]pyrimidin-7(4H)-one] |
| ≤ 10 | ≤ 10 | ≤ 10 | Nc1nn2c(=O)cc(-c3ccc4[nH]nnc4c3)[nH]c2c1-c1ccc(Cl)cc1 [Example 217, 2-Amino-5-(1H-benzo[d][1,2,3]triazol-5-yl)-3-(4-chlorophenyl)pyrazolo[1,5-a]pyrimidin-7(4H)-one] |
| ≤ 10 | ≤ 10 | ≤ 10 | COc1c(-c2cc(=O)n3nc(N)c(-c4ccccn4)c3[nH]2)ccc2c1OCO2 [Example 234, 2-Amino-5-(4-methoxybenzo[d][1,3]dioxol-5-yl)-3-(pyridin-2-yl)pyrazolo[1,5-a]pyrimidin-7(4H)-one] |
| ≤ 10 | ≤ 10 | ≤ 10 | COc1c(-c2cc(=O)n3nc(O)c(-c4ccccn4)c3[nH]2)ccc2c1OCO2 [Example 235, 2-Hydroxy-5-(4-methoxybenzo[d][1,3]dioxol-5-yl)-3-(pyridin-2-yl)pyrazolo[1,5-a]pyrimidin-7(4H)-one] |
| ≤ 10 | ≤ 10 | ≤ 10 | COc1c(-c2cc(=O)n3nc(C)c(-c4ccccn4)c3[nH]2)ccc2c1OCO2 [Example 237, 5-(4-Methoxybenzo[d][1,3]dioxol-5-yl)-2-methyl-3-(pyridin-2-yl)pyrazolo[1,5-a]pyrimidin-7(4H)-one] |

Continued, compound first:

| SMILES | IC50 (PASK [1]) [µM] | IC50 (PASK [2]) [µM] | IC50 (CK2a2) [µM] |
| --- | --- | --- | --- |
| O=c1cc(-c2ccc3c(c2)OCO3)[nH]c2c(-c3ncccc3F)cnn12 [Example 164, 5-(Benzo[d][1,3]dioxol-5-yl)-3-(3-fluoropyridin-2-yl)pyrazolo[1,5-a]pyrimidin-7(4H)-one] | ≤ 10 | ≤ 10 | ≤ 10 |
| CCCNC(=O)c1c(N)nn2c(=O)cc(-c3ccc4c(cnn4C)c3)[nH]c12 [Example 197, 2-Amino-5-(1-methyl-1H-indazol-5-yl)-7-oxo-N-propyl-4,7-dihydropyrazolo[1,5-a]pyrimidine-3-carboxamide] | ≤ 10 | ≤ 10 | ≤ 10 |
| CCCNC(=O)c1c(N)nn2c(=O)cc(-c3ccc4[nH]ncc4c3)[nH]c12 [Example 198, 2-Amino-5-(1H-indazol-5-yl)-7-oxo-N-propyl-4,7-dihydropyrazolo[1,5-a]pyrimidine-3-carboxamide] | ≤ 10 | ≤ 10 | ≤ 10 |
| Nc1nn2c(=O)cc(-c3ccc4[nH]nnc4c3)[nH]c2c1-c1ccccc1 [Example 199, 2-Amino-5-(1H-benzo[d][1,2,3]triazol-5-yl)-3-phenylpyrazolo[1,5-a]pyrimidin-7(4H)-one] | ≤ 10 | ≤ 10 | ≤ 10 |
| CC(=O)Nc1nn2c(=O)cc(-c3ccc4c(cnn4C)c3)[nH]c2c1-c1ccccn1 [Example 205, N-(5-(1-Methyl-1H-indazol-5-yl)-7-oxo-3-(pyridin-2-yl)-4,7-dihydropyrazolo[1,5-a]pyrimidin-2-yl)acetamide] | ≤ 10 | ≤ 10 | ≤ 10 |
| Cc1nn2c(=O)cc(-c3ccc4c(c3)OCO4)[nH]c2c1Cc1ccccn1 [Example 210, 5-(Benzo[d][1,3]dioxol-5-yl)-2-methyl-3-(pyridin-2-ylmethyl)pyrazolo[1,5-a]pyrimidin-7(4H)-one] | ≤ 10 | ≤ 10 | ≤ 10 |
| O=c1cc(-c2ccc3[nH]nnc3c2)[nH]c2c(-c3cccnc3)cnn12 [Example 213, 5-(1H-Benzo[d][1,2,3]triazol-5-yl)-3-(pyridin-3-yl)pyrazolo[1,5-a]pyrimidin-7(4H)-one] | ≤ 10 | ≤ 10 | ≤ 10 |
| CCCNC(=O)c1cnn2c(=O)cc(-c3ccc4[nH]nnc4c3)[nH]c12 [Example 214, 5-(1H-Benzo[d][1,2,3]triazol-5-yl)-7-oxo-N-propyl-4,7-dihydropyrazolo[1,5-a]pyrimidine-3-carboxamide] | ≤ 10 | ≤ 10 | ≤ 10 |
| O=c1cc(-c2ccc3[nH]nnc3c2)[nH]c2c(-c3ccc(Cl)cc3)cnn12 [Example 218, 5-(1H-Benzo[d][1,2,3]triazol-5-yl)-3-(4-chlorophenyl)pyrazolo[1,5-a]pyrimidin-7(4H)-one] | ≤ 10 | ≤ 10 | ≤ 10 |
| CCCNC(=O)c1c(N)nn2c(=O)cc(-c3ccc4[nH]nnc4c3)[nH]c12 [Example 223, 2-Amino-5-(1H-benzo[d][1,2,3]triazol-5-yl)-7-oxo-N-propyl-4,7-dihydropyrazolo[1,5-a]pyrimidine-3-carboxamide] | ≤ 10 | ≤ 10 | ≤ 10 |
| CCCNC(=O)c1c(N)nn2c(=O)cc(-c3ccc4[nH]nc(C)c4c3)[nH]c12 [Example 224, 2-Amino-5-(3-methyl-1H-indazol-5-yl)-7-oxo-N-propyl-4,7-dihydropyrazolo[1,5-a]pyrimidine-3-carboxamide] | ≤ 10 | ≤ 10 | ≤ 10 |
| CCCNC(=O)c1c(N)nn2c(=O)cc(-c3ccc(Cl)cc3)[nH]c12 [Example 225, 2-Amino-5-(4-chlorophenyl)-7-oxo-N-propyl-4,7-dihydropyrazolo[1,5-a]pyrimidine-3-carboxamide] | ≤ 10 | ≤ 10 | ≤ 10 |
| CCCNC(=O)c1c(O)nn2c(=O)cc(-c3ccc4c(c3)OCO4)[nH]c12 [Example 227, 5-(Benzo[d][1,3]dioxol-5-yl)-2-hydroxy-7-oxo-N-propyl-4,7-dihydropyrazolo[1,5-a]pyrimidine-3-carboxamide] | ≤ 10 | ≤ 10 | ≤ 10 |
